What was measured:
GRPR = molecular target: T1, GRPR (Homo sapiens, UniProt P30550); experiment: Immunofluorescence assay of paraffin tissue sections with the fluorescent probe; details: 4-µm paraffin sections, probe 10 min in the dark, ImageJ quantitation
T1 construct: The paraffin-embedded samples, obtained from the Department of Pathology, Stomatology Hospital of Shanxi Medical University, were cut into 4-µm slices; from tissue; host or cells: paraffin-embedded OSCC tissue and normal oral mucosa sections from patients
T1 sequence (P30550 whole entry): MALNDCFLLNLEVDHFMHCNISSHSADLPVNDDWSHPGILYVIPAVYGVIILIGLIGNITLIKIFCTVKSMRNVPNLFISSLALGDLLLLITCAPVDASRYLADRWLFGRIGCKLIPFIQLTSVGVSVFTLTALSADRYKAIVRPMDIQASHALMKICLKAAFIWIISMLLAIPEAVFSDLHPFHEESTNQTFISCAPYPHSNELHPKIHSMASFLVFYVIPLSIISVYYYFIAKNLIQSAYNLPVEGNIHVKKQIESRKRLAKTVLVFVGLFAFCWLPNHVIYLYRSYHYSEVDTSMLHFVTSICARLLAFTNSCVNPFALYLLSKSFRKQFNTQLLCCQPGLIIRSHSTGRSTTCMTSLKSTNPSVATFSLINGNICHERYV
Experimental: We analyzed the expression levels of GRPR in primary OSCC sections and the normal tissue sections using AF750-6Ahx-Sta-BBN immunofluorescence assay.
The paraffin-embedded samples, obtained from the Department of Pathology, Stomatology Hospital of Shanxi Medical University, were cut into 4-µm slices. Then tissue blocks were treated with xylene and dehydrated using a graded ethanol series. Following that, the sections were heated for antigen retrieval and incubated in 3% H2O2 to block endogenous peroxidase. The BSA was added and incubated at 37 °C for 30 min. After that, BSA was removed and AF750-6Ahx-Sta-BBN was added and incubated for 10 min in the dark. The slides were observed and imaged using an inverted Olympus fluorescence microscope (Olympus Corp., Osaka, Japan). Quantitative analysis of GRPR expression was performed using ImageJ (https://imagej.nih.gov/ij/). Each patient received written informed consent before the study.

GRPR on HSC-3 cells = molecular target: T2, GRPR on HSC-3 cells (Homo sapiens, UniProt P30550); experiment: Specificity binding (blocking) assay, NIR fluorescence microscopy; type: cell-based; details: 37 °C
T2 construct: endogenous in cells; host or cells: HSC-3 (human tongue squamous cell carcinoma)
T2 sequence (P30550 whole entry): as above
Experimental: The binding specificities of AF750-6Ahx-Sta-BBN were determined with HSC-3 cells of human oral tongue squamous cell carcinoma using previously described methods. […] To determine the binding affinity of AF750-6Ahx-Sta-BBN in HSC-3, cells were first incubated with BBN (1–14), then added increasing concentrations of AF750-6Ahx-Sta-BBN (0.005–50 nM). Cells were washed after 50 min incubation and examined by flow cytometry. The binding affinity to GRPR is shown in Fig. 7, and plotted as the fluorescence intensity as function of the AF750-6Ahx-Sta-BBN concentration (Fig. 7B).
Figure 6 The specificity binding assay of AF750-6Ahx-Sta-BBN to GRPR on HSC-3 cells at 37 °C. The scale bar is 30 μm.

HSC-3 cells [1] = experiment: Time-dependent cell uptake, flow cytometry; type: cell-based, human; details: HSC-3, 2 × 10^6 cells, 37 °C, performed three times
Experimental: (§1) The time-dependent experiment was carried out on HSC-3 cells for both AF750-6Ahx-Sta-BBN and NGO-BBN-AF750. […] With increase of incubation time, cells uptake increased, and at the first 15 min, we observed a rapid binding of up to 80%. […] The cell uptake was 83 ± 15% and 89 ± 29% (AF750-6Ahx-Sta-BBN) and 85 ± 15% and 96 ± 20% (NGO-BBN-AF750) at 30 min and 60 min, respectively. We further conducted confocal laser scanning microscope experiments to evaluate the internalization of AF750-6Ahx-Sta-BBN and NGO-BBN-AF750 into HSC-3 cells and HOK cells. Blue fluorescence (Excitation, 460 nm) was used to represent the nuclei of HSC-3 cells. Red (Excitation, 750 nm) channel represents the fluorescence signal of AF750. […] While AF750-6Ahx-Sta-BBN is a GRPR antagonist to the HSC-3, NGO-BBN-AF750 may be internalized into HSC-3 cells via the combined interaction of BBN binding and the endocytosis of the nanoparticle. Evaluating nanotoxicity of NGO-BBN-AF750 was a part of our experimental design.
HSC-3 cells were seeded into 3.5 cm^2 culture dish at a density of 2 × 10^6, next cells were incubated with AF750-6Ahx-Sta-BBN or NGO-AF750-BBN at 37 °C for 15, 30, 60 and 120 min, respectively. Then, cells were washed three times with chilled PBS and harvested for flow cytometry measurements. Experiments were performed three times. For internalization studies, HSC-3 cells were cultured in 24-well plates at 2 × 10^4 cells/well and grown for 24 h. Next, the original medium was replaced with fresh medium containing 50 nM AF750-6Ahx-Sta-BBN or NGO-BBN-AF750. The cells were then incubated for 4 h. After washing the cells three times with PBS, 2.5% paraformaldehyde was used to fix the cells. Then DAPI (Excitation, […]) was used to stain the nuclei of the cells. Finally, the cells were visualized under OLYMPUS FV1200 confocal laser scanning microscope (Olympus, Osaka, Japan). In addition, HOK cells were used as a GRPR-negative control group and cultured with NGO-BBN-AF750, the above experiment was performed and compared to the HSC-3 cells.

[2] = system: GRPR overexpressed in a prostate cancer PC-3 cell line; details: cited from earlier work
Excerpt: AF750-6Ahx-Sta-BBN is a GRPR antagonist peptide analog.

HSC-3 cells [3] = experiment: Internalization study, confocal laser scanning microscopy; type: cell-based, human; details: HSC-3, 50 nM probe, 4 h, DAPI nuclear stain
Experimental: as §1
HSC-3 cells were seeded into 3.5 cm^2 culture dish at a density of 2 × 10^6, next cells were incubated with AF750-6Ahx-Sta-BBN or NGO-AF750-BBN at 37 °C for 15, 30, 60 and 120 min, respectively. Then, cells were washed three times with chilled PBS and harvested for flow cytometry measurements. Experiments were performed three times. […]

- fluorescence intensity increase, OSCC tissue versus normal oral mucous tissue (GRPR): 2.5 fold
- NIR fluorescence of cells, blocking group (GRPR on HSC-3 cells; HSC-3 cells incubated with excessive BBN (1–14) for 10 min before the probe): no fluorescence signal
- NIR fluorescence of cells, uptake group (GRPR on HSC-3 cells; HSC-3 cells incubated with probe, no blocking): strong NIR fluorescence signals
Substance: -DPhe-Gln-Trp-Ala-Val-Gly-His-Sta-Leu-NH2 [AF750-6Ahx-Sta-BBN, GRPR-specific Alexa Fluor 750 labeled BBN antagonist peptide; Sta-BBN conjugated to AF750 via 6-aminohexanoic acid linker]
- binding in the first 15 min (HSC-3 cells [1]; 15 min): up to 80%
- cell uptake at 30 min (HSC-3 cells [1]; 30 min): 83 ± 15%
- cell uptake at 60 min (HSC-3 cells [1]; 60 min): 89 ± 29%
- binding affinity and specificity to GRPR [2]: high binding affinity and specificity
- cellular localisation / internalization (HSC-3 cells [3]): observed on the membrane of HSC-3
